According to patent US12128048B2, “Combination therapies using PRMT5 inhibitors for the treatment of cancer” (Mirati Therapeutics, Inc., priority 2021, dated 2024):

Columns and labels:
[1] = test system: KRAS^G12C and CDKN2A/MTAP^DEL lung tumor xenograft LU99 model; experiment: LU99 lung tumor xenograft, Example 1 (MRTX9768 with or without MRTX849); conditions: MRTX9768 100 mg/kg PO BID, MRTX849 30 mg/kg PO QD
Description: (§1) Immunodeficient female nu/nu mice were implanted with 5×10^6 LU99 lung cancer cells in 50% Matrigel. Tumors were measured using calipers until they reached approximately 150-200 mm^3. Animals were randomized to receive A) vehicle (0.5% methylcellulose (4000 cps)/0.2% Tween80 in water), B) a PRMT5 inhibitor, C) KRAS^G12C inhibitor, or D) the PRMT5 inhibitor and KRAS^G12C inhibitor, all administered orally (PO) for 21 days. Tumor volume was measured twice a week (n=5/treatment group). Average tumor volume and standard error of the mean was calculated and plotted at each study day in GraphPad.

[2] = test system: SW1573 PRMT5-044 lung tumor xenograft model; experiment: SW1573 PRMT5-044 tumor xenograft, Example 4 (MRTX1719 with or without MRTX849); format: in vivo, mice; conditions: MRTX1719 50 mg/kg PO QD, MRTX849 100 mg/kg PO QD
Description: as §1

[3] = test system: LU99 PRMT5-041 lung tumor xenograft model; experiment: LU99 PRMT5-041 tumor xenograft, Example 3 (MRTX1719 with or without MRTX849); format: in vivo, mice; conditions: MRTX1719 50 mg/kg PO QD, MRTX849 30 mg/kg PO QD
Description: as §1

[4] = test system: KRAS^G12C and CDKN2A/MTAP^DEL lung tumor xenograft LU99 model; experiment: LU99 lung tumor xenograft, Example 2 (MRTX7477 with or without MRTX849); conditions: MRTX7477 200 mg/kg PO BID, MRTX849 30 mg/kg PO QD
Description: as §1

Structure (SMILES): Cn1ncc(-c2ccc3c(=O)[nH]nc(CN)c3c2)c1-c1c(F)cc2ccccc2c1C#N [MRTX9768]
- Tumor Volume Mean ([1]; Day 0): 183.59 mm^3
- Tumor Volume Mean ([1]; Day 3): 265.26 mm^3
- Tumor Volume Mean ([1]; Day 7): 331.80 mm^3
- Tumor Volume Mean ([1]; Day 10): 349.53 mm^3
- Tumor Volume Mean ([1]; Day 14): 406.58 mm^3
- Tumor Volume Mean ([1]; Day 17): 431.91 mm^3
- Tumor Volume Mean ([1]; Day 21): 458.95 mm^3

Structure (SMILES): C=C(F)C(=O)N1CCN(c2nc(OC[C@@H]3CCCN3C)nc3c2CCN(c2cccc4cccc(Cl)c24)C3)C[C@@H]1CC#N [MRTX849]
- Tumor Volume Mean ([2]; Day 0): 139 mm^3
- Tumor Volume Mean ([2]; Day 3): 150 mm^3
- Tumor Volume Mean ([2]; Day 8): 188 mm^3
- Tumor Volume Mean ([2]; Day 10): 236 mm^3
- Tumor Volume Mean ([2]; Day 14): 285 mm^3
- Tumor Volume Mean ([2]; Day 17): 320 mm^3
- Tumor Volume Mean ([2]; Day 26): 361 mm^3
- Tumor Volume Mean ([3]; Day 0): 154 mm^3
- Tumor Volume Mean ([3]; Day 5): 142 mm^3
- Tumor Volume Mean ([3]; Day 8): 117 mm^3
- Tumor Volume Mean ([3]; Day 12): 87 mm^3
- Tumor Volume Mean ([3]; Day 15): 81 mm^3
- Tumor Volume Mean ([3]; Day 20): 84 mm^3
- Tumor Volume Mean ([3]; Day 22): 103 mm^3

Structure (SMILES): Cn1ncc(-c2ccc3c(=O)[nH]nc(CN)c3c2)c1-c1ccc2ccccc2c1C#N [MRTX7477]
- Tumor Volume ([4]; Day 1): 214.5 mm^3
- Tumor Volume ([4]; Day 5): 210.7 mm^3
- Tumor Volume ([4]; Day 8): 177.1 mm^3
- Tumor Volume ([4]; Day 12): 185.3 mm^3
- Tumor Volume ([4]; Day 15): 189.1 mm^3
- Tumor Volume ([4]; Day 19): 229.5 mm^3
- Tumor Volume ([4]; Day 21): 267.5 mm^3
- Tumor Volume ([4]; Day −2): 129.4 mm^3
